Assay [1] addresses T1, Polyadenylate-binding protein 1 (Homo sapiens, UniProt P11940). As to the kind of experiment: MLLE binding blockers, Cy5 peptide tracer – biochemical, fluorescence polarization, Cy5-PAM2 peptide, secondary, miRNA deadenylation inhibitor project, dose response (AID 602260). The assay is classed as functional. The note with it: read-out: IC50_Mean. In general terms: Fluorescence polarisation rises when a labelled molecule tumbles more slowly, as on binding a larger partner.

Assay [2] deals with Tyrosine-protein phosphatase non-receptor type 11 (Homo sapiens, UniProt Q06124). The assay is described as follows: PTPN11 enzyme inhibitors – biochemical, selectivity assay for STEP inhibitor project, dose response (AID 602367). The assay is classed as functional. As to conditions: read-out: IC50_Mean.
The target in assay [3] is T1, Polyadenylate-binding protein 1. The assay is described as follows: MLLE domain peptide-binding blockers, IC50 – biochemical, fluorescence polarization, FITC-PAM2 peptide, dose response (AID 602259). The assay is classed as functional. As to conditions: read-out: IC50_Mean.
Assay [4] deals with Dual specificity protein phosphatase 3 (Homo sapiens, UniProt P51452). The assay is described as follows: VHR phosphatase inhibition, dose response, selectivity assay for STEP inhibitor project, biochemical (AID 602374). The assay is classed as functional. The note with it: read-out: IC50_Mean.
The target in assay [5] is Small ubiquitin-related modifier 1 (Homo sapiens, UniProt P63165). The assay is described as follows: SUMO1 protein-protein binding blockers, potency – biochemical, FRET, dose response (AID 624383). The note with it: read-out: IC50_Mean. The assay is classed as functional.
Assay [6] deals with T2, Tyrosine-protein phosphatase non-receptor type 22 (Homo sapiens, UniProt Q9Y2R2).
T2 sequence (Q9Y2R2 whole entry): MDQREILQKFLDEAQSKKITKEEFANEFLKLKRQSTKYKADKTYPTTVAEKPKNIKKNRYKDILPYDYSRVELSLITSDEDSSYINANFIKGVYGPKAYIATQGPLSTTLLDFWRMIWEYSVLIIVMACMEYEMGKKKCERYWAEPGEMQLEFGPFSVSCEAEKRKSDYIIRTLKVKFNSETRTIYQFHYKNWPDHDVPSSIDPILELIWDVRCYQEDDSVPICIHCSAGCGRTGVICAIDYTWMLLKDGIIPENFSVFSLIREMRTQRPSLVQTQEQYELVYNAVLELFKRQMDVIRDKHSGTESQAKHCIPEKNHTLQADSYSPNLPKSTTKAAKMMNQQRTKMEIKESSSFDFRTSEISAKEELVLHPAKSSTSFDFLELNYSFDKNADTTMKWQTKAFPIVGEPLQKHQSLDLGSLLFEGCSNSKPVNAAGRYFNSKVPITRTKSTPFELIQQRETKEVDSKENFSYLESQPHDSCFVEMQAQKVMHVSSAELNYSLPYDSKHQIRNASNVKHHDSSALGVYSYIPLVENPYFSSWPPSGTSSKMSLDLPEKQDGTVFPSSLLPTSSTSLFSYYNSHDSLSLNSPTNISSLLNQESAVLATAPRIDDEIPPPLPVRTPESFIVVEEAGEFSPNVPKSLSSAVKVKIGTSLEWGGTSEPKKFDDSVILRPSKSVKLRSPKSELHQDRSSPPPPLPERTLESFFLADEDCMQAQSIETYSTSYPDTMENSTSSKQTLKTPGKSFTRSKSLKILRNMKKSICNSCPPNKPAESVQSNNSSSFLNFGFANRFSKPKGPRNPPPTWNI
The assay is described as follows: lymphoid phosphatase LYP inhibitors – biochemical, selectivity assay for STEP inhibitor project, dose response (AID 624241). The assay is classed as functional.

Another assay deals with T3, Caspase-6 (Homo sapiens, UniProt P55212).
T3 sequence (P55212 whole entry): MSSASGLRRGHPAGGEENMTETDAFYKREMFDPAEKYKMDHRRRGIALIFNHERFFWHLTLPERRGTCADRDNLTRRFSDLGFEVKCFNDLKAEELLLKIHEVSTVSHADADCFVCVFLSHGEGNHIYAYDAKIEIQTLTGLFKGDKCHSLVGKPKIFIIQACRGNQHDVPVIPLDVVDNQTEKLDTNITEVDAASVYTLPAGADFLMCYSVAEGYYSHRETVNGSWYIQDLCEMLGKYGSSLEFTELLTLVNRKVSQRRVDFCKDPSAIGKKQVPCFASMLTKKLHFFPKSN
The assay is described as follows: inhibition of CASP6 peptide cleavage – biochemical, VEID-R110 fluorescence, cherry-pick, dose response (AID 720632).

For assay [7], the target named is T4, Delta-type opioid receptor (Homo sapiens, UniProt P41143). As to the kind of experiment: HTS Image-Based Screen for Antagonists of the DOR Receptor. [Related pubchem assays (depositor defined):AID1777, AID1785, AID1786, AID2133]. The assay is classed as functional.
Another assay has as its target Mu-type opioid receptor (Homo sapiens, UniProt P35372). The assay is described as follows: HTS Image-Based Screen for Agonists of the MOR Receptor. [Related pubchem assays (depositor defined):AID1777, AID1785, AID1786, AID2133]. The assay is classed as functional.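 Further: imaging of beta-arrestin GFP recruitment into spots after receptor activation.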
The target in assay [8] is T4, Delta-type opioid receptor. The assay is described as follows: HTS Image-Based Screen for Agonists of the DOR Receptor. [Related pubchem assays (depositor defined):AID1777, AID1786, AID2133]. The assay is classed as functional.
The nature of assay [9]: Trypanosoma cruzi growth suppression in host cells – NIH3T3 host cells, beta-gal luminescence, confirmation (AID 2044).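 Further: intracellular parasites grown in NIH/3T3 mouse fibroblasts as host cells; luminescent beta-galactosidase reporter signal from transgenic T. cruzi replicating inside host cells; inhibitors lower the luminescence signal.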 The assay is classed as functional, cell-based.
The target of another assay is Beta-galactosidase (Escherichia coli, UniProt Q8VNN2). The assay is classed as functional.
Assay [10] concerns the target T5, High affinity choline transporter 1 (Homo sapiens, UniProt Q9GZV3).
T5 sequence (Q9GZV3 whole entry): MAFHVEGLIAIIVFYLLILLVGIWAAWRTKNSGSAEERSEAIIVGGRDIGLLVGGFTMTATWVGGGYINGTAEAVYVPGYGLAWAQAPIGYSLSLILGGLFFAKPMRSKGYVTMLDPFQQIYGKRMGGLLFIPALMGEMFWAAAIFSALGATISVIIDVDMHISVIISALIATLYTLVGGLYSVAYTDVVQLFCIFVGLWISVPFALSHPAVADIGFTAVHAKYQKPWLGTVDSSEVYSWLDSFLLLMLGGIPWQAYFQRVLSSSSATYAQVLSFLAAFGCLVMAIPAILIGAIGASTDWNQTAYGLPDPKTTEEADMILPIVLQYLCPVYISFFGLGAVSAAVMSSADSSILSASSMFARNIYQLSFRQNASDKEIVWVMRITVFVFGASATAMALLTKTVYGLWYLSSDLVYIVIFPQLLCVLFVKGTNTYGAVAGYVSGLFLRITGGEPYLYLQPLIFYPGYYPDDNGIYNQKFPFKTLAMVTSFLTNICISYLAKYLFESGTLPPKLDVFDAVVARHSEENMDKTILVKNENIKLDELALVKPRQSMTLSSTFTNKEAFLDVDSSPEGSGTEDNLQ
As to the kind of experiment: human choline transporter blockers, potency – cell-based, 5-point CRC, membrane potential dye, dose response (AID 504840). The assay is classed as functional.

For another assay, the target named is Beta Lactamase (Pseudomonas aeruginosa, UniProt Q932Y6). The assay is described as follows: BLA reporter interference, concentration series – BLA reporter cells, FRET fluorescence, artefact control for TLR9-MyD88 binding inhibitor project, dose response (AID 588341).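 Further: cell based assay in CHO-K1 cells stably expressing beta-lactamase.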 The assay is classed as cell-based.
Assay [11] has as its target T6, Fatty acid synthase (Homo sapiens, UniProt P49327). The assay is described as follows: inhibition of human FAS-TE enzyme activity – biochemical, endpoint fluorescence intensity, uHTS hits, dose response (AID 624327).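 Further: fluorescence from hydrolysis of an O-methyl fluorescein acyl ester substrate by the enzyme.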 The assay is classed as functional.
In assay [12] the target is T6, Fatty acid synthase. The assay is described as follows: inhibition of human FAS-TE enzyme activity – biochemical, kinetic fluorescence intensity, dose response (AID 624326).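 Further: rate of fluorescence rise from hydrolysis of a fluorogenic O-methyl fluorescein ester substrate.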 The assay is classed as functional.

The source made the active and inactive calls. Some results are limits rather than exact numbers.

T4 sequence (P41143 whole entry): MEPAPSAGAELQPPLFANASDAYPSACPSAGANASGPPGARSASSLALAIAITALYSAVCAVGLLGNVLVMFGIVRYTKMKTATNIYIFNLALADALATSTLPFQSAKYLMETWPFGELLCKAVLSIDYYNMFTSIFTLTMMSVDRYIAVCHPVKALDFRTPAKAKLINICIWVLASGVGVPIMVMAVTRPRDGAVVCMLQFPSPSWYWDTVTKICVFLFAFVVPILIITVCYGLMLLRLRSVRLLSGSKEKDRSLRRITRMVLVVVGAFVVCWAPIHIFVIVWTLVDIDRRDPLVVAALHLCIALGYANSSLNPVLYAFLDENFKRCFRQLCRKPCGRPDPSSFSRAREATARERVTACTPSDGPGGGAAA
T6 sequence (P49327 whole entry): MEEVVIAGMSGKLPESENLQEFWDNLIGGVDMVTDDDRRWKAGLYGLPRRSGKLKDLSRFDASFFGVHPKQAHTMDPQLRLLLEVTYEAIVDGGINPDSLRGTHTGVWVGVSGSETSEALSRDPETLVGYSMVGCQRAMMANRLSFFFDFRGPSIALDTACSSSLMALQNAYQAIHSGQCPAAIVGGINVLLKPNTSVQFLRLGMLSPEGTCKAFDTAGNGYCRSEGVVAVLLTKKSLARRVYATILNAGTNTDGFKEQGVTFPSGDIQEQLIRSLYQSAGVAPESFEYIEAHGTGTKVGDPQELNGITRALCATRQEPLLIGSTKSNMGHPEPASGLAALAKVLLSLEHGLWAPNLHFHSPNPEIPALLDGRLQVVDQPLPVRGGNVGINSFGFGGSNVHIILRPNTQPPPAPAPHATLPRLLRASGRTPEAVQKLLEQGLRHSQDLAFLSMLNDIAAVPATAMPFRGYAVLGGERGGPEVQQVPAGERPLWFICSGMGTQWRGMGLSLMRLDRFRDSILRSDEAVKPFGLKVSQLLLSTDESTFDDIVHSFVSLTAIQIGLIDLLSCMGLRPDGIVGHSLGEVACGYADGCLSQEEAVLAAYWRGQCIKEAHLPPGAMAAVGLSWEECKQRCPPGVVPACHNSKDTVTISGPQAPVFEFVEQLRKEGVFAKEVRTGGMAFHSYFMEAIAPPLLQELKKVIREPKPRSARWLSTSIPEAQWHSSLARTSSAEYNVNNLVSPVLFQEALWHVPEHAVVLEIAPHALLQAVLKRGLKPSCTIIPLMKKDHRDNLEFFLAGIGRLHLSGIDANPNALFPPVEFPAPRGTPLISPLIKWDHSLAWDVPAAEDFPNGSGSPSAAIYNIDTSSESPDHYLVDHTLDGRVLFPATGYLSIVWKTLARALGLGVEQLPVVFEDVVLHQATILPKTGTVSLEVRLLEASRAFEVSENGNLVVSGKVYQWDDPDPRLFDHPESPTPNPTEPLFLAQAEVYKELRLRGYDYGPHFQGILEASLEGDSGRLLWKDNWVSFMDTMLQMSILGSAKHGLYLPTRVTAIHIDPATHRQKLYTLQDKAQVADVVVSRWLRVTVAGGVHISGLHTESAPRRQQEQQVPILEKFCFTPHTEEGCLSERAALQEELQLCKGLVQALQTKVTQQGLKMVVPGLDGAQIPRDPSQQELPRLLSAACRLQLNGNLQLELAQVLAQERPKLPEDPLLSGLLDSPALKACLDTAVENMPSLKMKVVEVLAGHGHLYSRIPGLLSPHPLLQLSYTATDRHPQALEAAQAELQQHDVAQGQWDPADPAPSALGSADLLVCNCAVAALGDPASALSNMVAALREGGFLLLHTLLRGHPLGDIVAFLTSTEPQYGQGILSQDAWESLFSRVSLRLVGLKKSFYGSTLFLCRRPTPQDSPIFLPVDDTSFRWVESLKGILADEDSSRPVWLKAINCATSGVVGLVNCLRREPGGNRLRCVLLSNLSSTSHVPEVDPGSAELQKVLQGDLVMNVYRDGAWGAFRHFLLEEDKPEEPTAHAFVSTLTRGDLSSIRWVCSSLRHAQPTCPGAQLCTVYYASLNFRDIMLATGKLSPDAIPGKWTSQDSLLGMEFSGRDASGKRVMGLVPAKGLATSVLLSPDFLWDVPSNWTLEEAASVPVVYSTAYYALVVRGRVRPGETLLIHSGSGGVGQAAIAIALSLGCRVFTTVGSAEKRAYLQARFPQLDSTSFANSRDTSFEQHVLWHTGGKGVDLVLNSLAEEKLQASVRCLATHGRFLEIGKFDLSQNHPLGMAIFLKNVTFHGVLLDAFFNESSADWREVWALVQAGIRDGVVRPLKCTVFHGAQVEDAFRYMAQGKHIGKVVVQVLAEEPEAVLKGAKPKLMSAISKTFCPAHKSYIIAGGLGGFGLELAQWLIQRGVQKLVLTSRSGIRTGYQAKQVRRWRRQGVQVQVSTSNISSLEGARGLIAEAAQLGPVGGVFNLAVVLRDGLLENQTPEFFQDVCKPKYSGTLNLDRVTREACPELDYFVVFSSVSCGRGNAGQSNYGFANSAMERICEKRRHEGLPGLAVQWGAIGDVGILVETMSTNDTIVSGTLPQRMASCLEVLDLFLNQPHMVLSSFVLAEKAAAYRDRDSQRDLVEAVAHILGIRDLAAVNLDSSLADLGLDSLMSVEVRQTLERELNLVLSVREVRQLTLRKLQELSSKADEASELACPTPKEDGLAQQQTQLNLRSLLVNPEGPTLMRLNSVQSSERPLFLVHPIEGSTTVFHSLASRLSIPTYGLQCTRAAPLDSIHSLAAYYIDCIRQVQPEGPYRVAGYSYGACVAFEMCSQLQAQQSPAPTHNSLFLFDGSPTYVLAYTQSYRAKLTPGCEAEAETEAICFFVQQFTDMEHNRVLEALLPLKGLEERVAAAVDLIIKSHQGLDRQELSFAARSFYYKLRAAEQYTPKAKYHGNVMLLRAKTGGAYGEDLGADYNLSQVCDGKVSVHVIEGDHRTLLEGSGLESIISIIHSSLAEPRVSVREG
T1 sequence (P11940 whole entry): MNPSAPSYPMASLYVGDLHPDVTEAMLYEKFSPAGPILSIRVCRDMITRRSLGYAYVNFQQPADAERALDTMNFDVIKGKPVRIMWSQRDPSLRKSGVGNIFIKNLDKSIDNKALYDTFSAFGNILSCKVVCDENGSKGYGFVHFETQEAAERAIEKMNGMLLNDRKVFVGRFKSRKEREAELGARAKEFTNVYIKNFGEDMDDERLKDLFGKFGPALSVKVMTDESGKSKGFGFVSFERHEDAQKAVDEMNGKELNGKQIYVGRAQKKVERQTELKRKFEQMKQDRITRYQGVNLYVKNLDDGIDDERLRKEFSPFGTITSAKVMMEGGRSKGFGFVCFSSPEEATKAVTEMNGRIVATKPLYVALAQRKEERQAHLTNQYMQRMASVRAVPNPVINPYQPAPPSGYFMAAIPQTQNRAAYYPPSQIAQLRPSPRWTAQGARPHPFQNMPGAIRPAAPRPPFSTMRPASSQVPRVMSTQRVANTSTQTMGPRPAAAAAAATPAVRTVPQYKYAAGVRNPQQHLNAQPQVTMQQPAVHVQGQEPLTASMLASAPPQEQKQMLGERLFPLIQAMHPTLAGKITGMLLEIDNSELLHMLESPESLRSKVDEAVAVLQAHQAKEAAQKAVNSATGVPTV
Small ubiquitin-related modifier 1, sequence (P63165 whole entry): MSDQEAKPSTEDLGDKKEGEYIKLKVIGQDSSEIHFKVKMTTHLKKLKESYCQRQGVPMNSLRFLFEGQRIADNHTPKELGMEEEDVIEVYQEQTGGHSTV
Mu-type opioid receptor, sequence (P35372 whole entry): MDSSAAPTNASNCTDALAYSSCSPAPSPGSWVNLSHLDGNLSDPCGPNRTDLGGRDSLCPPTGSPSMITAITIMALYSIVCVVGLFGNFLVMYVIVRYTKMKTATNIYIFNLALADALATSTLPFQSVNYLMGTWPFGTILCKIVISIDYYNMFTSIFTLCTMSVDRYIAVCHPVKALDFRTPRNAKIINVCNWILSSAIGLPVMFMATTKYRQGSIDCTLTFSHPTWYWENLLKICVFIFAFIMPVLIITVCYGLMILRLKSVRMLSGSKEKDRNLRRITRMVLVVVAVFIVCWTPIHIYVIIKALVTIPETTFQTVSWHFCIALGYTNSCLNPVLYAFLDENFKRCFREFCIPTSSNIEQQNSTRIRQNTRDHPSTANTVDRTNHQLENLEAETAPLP
Beta Lactamase, sequence (Q932Y6 whole entry): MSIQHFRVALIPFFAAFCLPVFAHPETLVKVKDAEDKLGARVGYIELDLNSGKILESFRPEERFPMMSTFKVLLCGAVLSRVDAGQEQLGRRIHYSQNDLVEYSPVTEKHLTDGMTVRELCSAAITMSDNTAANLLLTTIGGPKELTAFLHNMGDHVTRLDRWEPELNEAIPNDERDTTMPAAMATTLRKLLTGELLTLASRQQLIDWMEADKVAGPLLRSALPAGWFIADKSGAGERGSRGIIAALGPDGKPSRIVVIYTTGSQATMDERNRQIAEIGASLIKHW
Tyrosine-protein phosphatase non-receptor type 11, sequence (Q06124 whole entry, the tested form may be a part): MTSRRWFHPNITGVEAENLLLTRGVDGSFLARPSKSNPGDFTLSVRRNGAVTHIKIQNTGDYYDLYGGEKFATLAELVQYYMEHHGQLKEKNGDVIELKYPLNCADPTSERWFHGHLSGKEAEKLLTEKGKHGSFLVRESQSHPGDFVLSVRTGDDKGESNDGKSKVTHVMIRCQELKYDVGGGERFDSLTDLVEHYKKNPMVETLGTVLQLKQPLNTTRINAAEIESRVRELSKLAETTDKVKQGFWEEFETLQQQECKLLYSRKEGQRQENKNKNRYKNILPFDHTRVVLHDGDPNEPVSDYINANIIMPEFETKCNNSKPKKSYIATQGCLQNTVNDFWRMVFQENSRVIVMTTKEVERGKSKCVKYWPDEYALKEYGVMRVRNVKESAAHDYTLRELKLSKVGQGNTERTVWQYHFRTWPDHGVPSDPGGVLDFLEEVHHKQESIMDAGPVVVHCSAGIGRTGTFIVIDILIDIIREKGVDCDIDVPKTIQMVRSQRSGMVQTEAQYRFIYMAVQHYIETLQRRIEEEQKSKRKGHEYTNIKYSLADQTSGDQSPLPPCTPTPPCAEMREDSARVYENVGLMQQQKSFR

In the case of `O=S(=O)(O)c1cc(O)c2cc(Nc3ccccc3)ccc2c1`, the IC50 in assay [1] was > 66 µM (inactive); in assay [2], 0.335 µM (active); in [3], > 66 µM (inactive); in assay [4] it was 0.485 µM (active); in assay [5] it was 4.47 µM (active); in assay [6] it was 5.09 µM (active). The AC50 (commonly the concentration at which the activity in the assay is half-maximal) on Caspase-6 is 0.403 µM (active).

For `O=[N+]([O-])c1c(Nc2ccccc2O)cc(Cl)c2nonc12`, the IC50 in assay [7] is 14.7 µM (inactive); in [10] it was 13.2 µM (active); at Beta Lactamase, 18.4 µM (inactive); at Fatty acid synthase [11], 14.6 µM (active); on Fatty acid synthase [12] it was 7.45 µM (active). For the same compound, the EC50 (in general, the concentration needed to bring the measured effect to its halfway point) at Mu-type opioid receptor was > 32 µM (inactive); in assay [8], > 32 µM (inactive); in assay [9], 1.79 µM (active); on Beta-galactosidase, > 31.5 µM (inactive).
